The values below come from PubChem BioAssay AID1259407 (Chemical Carcinogenesis Research Information System (CCRIS), 2018).

Activity calls are given as the source filed them. How the calls were made is not given here.

The test system of the data set is CCRIS mutagenicity, Ames/micronucleus/aberration tests. As to the kind of experiment: CCRIS mutagenicity studies.
[1] abbreviates: Test System: AMES SALMONELLA TYPHIMURIUM, Strain/Indicator: TA1537, Metabolic Activation: NONE, Method: STANDARD PLATE.
The mark [2] stands for this setting: Test System: AMES SALMONELLA TYPHIMURIUM, Strain/Indicator: TA98, Metabolic Activation: NONE, Method: PREINCUBATION
[3] abbreviates: Test System: AMES SALMONELLA TYPHIMURIUM, Strain/Indicator: TA100, Metabolic Activation: NONE, Method: PREINCUBATION
The mark [4] stands for this setting: Test System: AMES SALMONELLA TYPHIMURIUM, Strain/Indicator: TA1535, Metabolic Activation: NONE, Method: PREINCUBATION
Where [5] appears, read: Test System: AMES SALMONELLA TYPHIMURIUM, Strain/Indicator: TA98, Metabolic Activation: NONE, Method: STANDARD PLATE.
[6] abbreviates: Test System: AMES SALMONELLA TYPHIMURIUM, Strain/Indicator: TA100, Metabolic Activation: NONE, Method: STANDARD PLATE.
Setting [7] is: Test System: AMES SALMONELLA TYPHIMURIUM, Strain/Indicator: TA97, Metabolic Activation: NONE, Method: STANDARD PLATE.
Where [8] appears, read: Test System: AMES SALMONELLA TYPHIMURIUM, Strain/Indicator: TA102, Metabolic Activation: NONE, Method: STANDARD PLATE.
The mark [9] stands for this setting: Test System: AMES SALMONELLA TYPHIMURIUM, Strain/Indicator: TA100, Metabolic Activation: RAT, LIVER, S-9, AROCLOR 1254, Method: STANDARD PLATE.

`Oc1ccc(Nc2c3ccccc3nc3ccccc23)cc1`: the mutagenic call under setting [1] was “active; positive”.

For the compound `C=C(C)C(=O)OCC(Br)CBr` (stereo unspecified), the mutagenic call reads like this: (Test System: AMES SALMONELLA TYPHIMURIUM, Strain/Indicator: TA98, Metabolic Activation: HAMSTER, LIVER, S-9, AROCLOR 1254 (10%), Method: PREINCUBATION) “active; positive”; under setting [2], “inactive; negative”; (Test System: AMES SALMONELLA TYPHIMURIUM, Strain/Indicator: TA98, Metabolic Activation: RAT, LIVER, S-9, AROCLOR 1254 (10%), Method: PREINCUBATION) “inactive; negative”; (Test System: AMES SALMONELLA TYPHIMURIUM, Strain/Indicator: TA100, Metabolic Activation: HAMSTER, LIVER, S-9, AROCLOR 1254 (10%), Method: PREINCUBATION) “active; positive”; under setting [3], “inactive; negative”; (Test System: AMES SALMONELLA TYPHIMURIUM, Strain/Indicator: TA100, Metabolic Activation: RAT, LIVER, S-9, AROCLOR 1254 (10%), Method: PREINCUBATION) “active; positive”. Besides, the mutagenic call reads like this: (Test System: AMES SALMONELLA TYPHIMURIUM, Strain/Indicator: TA1535, Metabolic Activation: HAMSTER, LIVER, S-9, AROCLOR 1254 (10%), Method: PREINCUBATION) “active; positive”; under setting [4], “inactive; negative”; (Test System: AMES SALMONELLA TYPHIMURIUM, Strain/Indicator: TA1535, Metabolic Activation: RAT, LIVER, S-9, AROCLOR 1254 (10%), Method: PREINCUBATION) “active; positive”; (Test System: AMES SALMONELLA TYPHIMURIUM, Strain/Indicator: TA1537, Metabolic Activation: HAMSTER, LIVER, S-9, AROCLOR 1254 (10%), Method: PREINCUBATION) “inactive; negative”; (Test System: AMES SALMONELLA TYPHIMURIUM, Strain/Indicator: TA1537, Metabolic Activation: NONE, Method: PREINCUBATION) “inactive; negative”; (Test System: AMES SALMONELLA TYPHIMURIUM, Strain/Indicator: TA1537, Metabolic Activation: RAT, LIVER, S-9, AROCLOR 1254 (10%), Method: PREINCUBATION) “inactive; negative”.

Consider `CCCCCCCCCCOC[N+](C)(C)Cc1ccccc1`, for which the mutagenic call reads like this: (Test System: BACILLUS SUBTILIS, Strain/Indicator: H17/REC, Metabolic Activation: NONE, Method: STANDARD PLATE) “inactive; negative”; (Test System: BACILLUS SUBTILIS, Strain/Indicator: M45, Metabolic Activation: NONE, Method: STANDARD PLATE) “inactive; negative”.

As to `CN(C)CCNC(=O)c1cccn2c(=O)c3ccccc3nc12`, under setting [1], the mutagenic call was “active; positive”.

`O=C(O)Cc1ccccc1Cl`: the mutagenic call reads like this: under setting [2], “inactive; negative”; (Test System: AMES SALMONELLA TYPHIMURIUM, Strain/Indicator: TA98, Metabolic Activation: RAT LIVER S-9, PCB, Method: PREINCUBATION) “inactive; negative”; under setting [3], “inactive; negative”; (Test System: AMES SALMONELLA TYPHIMURIUM, Strain/Indicator: TA100, Metabolic Activation: RAT LIVER S-9, PCB, Method: PREINCUBATION) “inactive; negative”; (Test System: AMES SALMONELLA TYPHIMURIUM, Strain/Indicator: TA104, Metabolic Activation: NONE, Method: PREINCUBATION) “inactive; negative”; (Test System: AMES SALMONELLA TYPHIMURIUM, Strain/Indicator: TA104, Metabolic Activation: RAT LIVER S-9, PCB, Method: PREINCUBATION) “inactive; negative”. Moreover, the mutagenic call is “inactive; negative” (Test System: E.COLI, Strain/Indicator: WP2 UVRA, Metabolic Activation: NONE, Method: PREINCUBATION) and “inactive; negative” (Test System: E.COLI, Strain/Indicator: WP2 UVRA, Metabolic Activation: RAT LIVER S-9, PCB, Method: PREINCUBATION).

As to `CC(=O)c1oc([N+](=O)[O-])c(Cl)c1Cl`, the mutagenic call was “active; positive” under setting [5]; “active; positive” (Test System: AMES SALMONELLA TYPHIMURIUM, Strain/Indicator: TA100 (NR), Metabolic Activation: NONE, Method: STANDARD PLATE); “active; positive” under setting [6]; “active; positive” (Test System: AMES SALMONELLA TYPHIMURIUM, Strain/Indicator: TA100, Metabolic Activation: NONE, Method: STANDARD PLATE (ANAEROBIC INCUBATION)).

In the case of `CCCCOC(=O)CCCCCCCCC(=O)OCCCC`, the mutagenic call under setting [7] was “inactive; negative”; the mutagenic call (Test System: AMES SALMONELLA TYPHIMURIUM, Strain/Indicator: TA97, Metabolic Activation: S-9, Method: STANDARD PLATE) was “inactive; negative”; the mutagenic call under setting [5] is “inactive; negative”; the mutagenic call (Test System: AMES SALMONELLA TYPHIMURIUM, Strain/Indicator: TA98, Metabolic Activation: S-9, Method: STANDARD PLATE) was “inactive; negative”; the mutagenic call under setting [6] is “inactive; negative”; the mutagenic call (Test System: AMES SALMONELLA TYPHIMURIUM, Strain/Indicator: TA100, Metabolic Activation: S-9, Method: STANDARD PLATE) was “inactive; negative”. Besides, the mutagenic call under setting [8] was “inactive; negative”; the mutagenic call (Test System: AMES SALMONELLA TYPHIMURIUM, Strain/Indicator: TA102, Metabolic Activation: S-9, Method: STANDARD PLATE) is “inactive; negative”; the mutagenic call (Test System: E.COLI, Strain/Indicator: WP2 (PKM101), Metabolic Activation: NONE, Method: STANDARD PLATE) was “inactive; negative”; the mutagenic call (Test System: E.COLI, Strain/Indicator: WP2 (PKM101), Metabolic Activation: S-9, Method: STANDARD PLATE) is “inactive; negative”.

Regarding `COc1ccc([C@H]2O[C@H]2C)cc1`, the mutagenic call is “inactive; negative” under setting [2], “active; positive” under setting [3] and “active; positive” under setting [4].

For the compound `O=C([O-])c1cccnc1Nc1cccc(C(F)(F)F)c1.O=C([O-])c1cccnc1Nc1cccc(C(F)(F)F)c1.[Cu+2]`, the mutagenic call is, setting by setting: (Test System: AMES SALMONELLA TYPHIMURIUM, Strain/Indicator: TA97, Metabolic Activation: MOUSE, LIVER, S-9, Method: STANDARD PLATE) “inactive; negative”; under setting [7], “inactive; negative”; (Test System: AMES SALMONELLA TYPHIMURIUM, Strain/Indicator: TA97, Metabolic Activation: RAT LIVER S-9, DELOR 103, Method: STANDARD PLATE) “inactive; negative”; (Test System: AMES SALMONELLA TYPHIMURIUM, Strain/Indicator: TA98, Metabolic Activation: MOUSE, LIVER, S-9, Method: STANDARD PLATE) “inactive; negative”; under setting [5], “inactive; negative”; (Test System: AMES SALMONELLA TYPHIMURIUM, Strain/Indicator: TA98, Metabolic Activation: RAT LIVER S-9, DELOR 103, Method: STANDARD PLATE) “inactive; negative”. Moreover, the mutagenic call reads like this: (Test System: AMES SALMONELLA TYPHIMURIUM, Strain/Indicator: TA100, Metabolic Activation: MOUSE, LIVER, S-9, Method: STANDARD PLATE) “inactive; negative”; under setting [6], “inactive; negative”; (Test System: AMES SALMONELLA TYPHIMURIUM, Strain/Indicator: TA100, Metabolic Activation: RAT LIVER S-9, DELOR 103, Method: STANDARD PLATE) “inactive; negative”; (Test System: AMES SALMONELLA TYPHIMURIUM, Strain/Indicator: TA102, Metabolic Activation: MOUSE, LIVER, S-9, Method: STANDARD PLATE) “inactive; negative”; under setting [8], “inactive; negative”; (Test System: AMES SALMONELLA TYPHIMURIUM, Strain/Indicator: TA102, Metabolic Activation: RAT LIVER S-9, DELOR 103, Method: STANDARD PLATE) “inactive; negative”.

On to `CCCCCn1cc2c3c(cccc31)[C@H]1C=C(C)CN(C)[C@@H]1C2`, for which, under setting [9], the mutagenic call was “active; positive”.

For the compound `OC1C[C@]23C=CC=C[C@@]2(C1)O3` (stereo partly specified), the mutagenic call by setting is: under setting [5], “inactive; negative”; under setting [6], “inactive; negative”; (Test System: AMES SALMONELLA TYPHIMURIUM, Strain/Indicator: TM677/8-AZAGUANINE, Metabolic Activation: NONE, Method: STANDARD PLATE) “active; positive”.

As to `C1CSCSC1`, the mutagenic call under setting [5] was “active; positive”; the mutagenic call (Test System: AMES SALMONELLA TYPHIMURIUM, Strain/Indicator: TA98, Metabolic Activation: RAT, LIVER, S-9, AROCLOR 1254, Method: STANDARD PLATE) is “inactive; negative”; the mutagenic call under setting [6] is “active; positive”; the mutagenic call under setting [9] was “active; positive”.
